Patent US20250134875A1, “FORMULATIONS OF ALK-5 KINASE INHIBITORS AND USES THEREOF” (Thirona Bio, Inc., priority 2023, published 2025)

Test system: surgical incision-induced dermal fibrosis
Assay: Surgical incision-induced dermal fibrosis model: clinical signs, visual assessment, histology
Format: in vivo, Göttingen minipig
Protocol: . Therefore, a model of surgical incision-induced dermal fibrosis was established in minipigs and the effects of topical Compound 1 were evaluated by visual assessment, histologic examination and gene expression by RNA sequencing.
The study was conducted in 4 female Göttingen SPF minipigs. On Day 1, eight full thickness incisional wounds, four on each side, were performed on each animal. […]. All animals received a dose volume of 160 μl per wound ([…] applied to a 32 cm2 area surrounding each incision). Clinical signs, visual observations of incisions, body weight and food consumption were recorded during the in-life period. At necropsy (Day 21) two biopsies were collected from each incision for histopathology and gene expression analysis.
For histopathology, a 0.8 cm punch biopsy was collected from the incisional wounds. The biopsies were divided into two, diagonal to the incisional wound. All biopsies were individually fixed in phosphate buffered neutral 4% formaldehyde. Following fixation, all incisional wound biopsies collected for microscopic examination were trimmed and processed. The specimens were embedded in paraffin and cut at a nominal thickness of approximately […], stained with haematoxylin and eosin, and examined by light microscopy.

Wound healing (histology: new collagen, re-epithelialisation) (Day 21): wound healing was not compromised
SMILES: Cc1cccc(-n2ncc(C)c2-c2cc3cnccc3s2)n1 [Compound 1]
Adverse clinical signs (in-life period, topical 0.1%, 0.3% or 1% twice daily for 14 days): No adverse clinical signs
Fibrosis (gene expression and histology data) (topical administration): inhibits fibrosis
